From patent US20090082354A1, “PYRAZOLO[5, 1-C] [1,2,4] TRIAZINES, METHODS FOR PREPARATION AND USE THEREOF” (Wyeth, priority 2007, published 2009) come the findings set out here.

The term IC50 denotes the concentration at which inhibition is half-maximal.

T1 sequence (P15056 whole entry): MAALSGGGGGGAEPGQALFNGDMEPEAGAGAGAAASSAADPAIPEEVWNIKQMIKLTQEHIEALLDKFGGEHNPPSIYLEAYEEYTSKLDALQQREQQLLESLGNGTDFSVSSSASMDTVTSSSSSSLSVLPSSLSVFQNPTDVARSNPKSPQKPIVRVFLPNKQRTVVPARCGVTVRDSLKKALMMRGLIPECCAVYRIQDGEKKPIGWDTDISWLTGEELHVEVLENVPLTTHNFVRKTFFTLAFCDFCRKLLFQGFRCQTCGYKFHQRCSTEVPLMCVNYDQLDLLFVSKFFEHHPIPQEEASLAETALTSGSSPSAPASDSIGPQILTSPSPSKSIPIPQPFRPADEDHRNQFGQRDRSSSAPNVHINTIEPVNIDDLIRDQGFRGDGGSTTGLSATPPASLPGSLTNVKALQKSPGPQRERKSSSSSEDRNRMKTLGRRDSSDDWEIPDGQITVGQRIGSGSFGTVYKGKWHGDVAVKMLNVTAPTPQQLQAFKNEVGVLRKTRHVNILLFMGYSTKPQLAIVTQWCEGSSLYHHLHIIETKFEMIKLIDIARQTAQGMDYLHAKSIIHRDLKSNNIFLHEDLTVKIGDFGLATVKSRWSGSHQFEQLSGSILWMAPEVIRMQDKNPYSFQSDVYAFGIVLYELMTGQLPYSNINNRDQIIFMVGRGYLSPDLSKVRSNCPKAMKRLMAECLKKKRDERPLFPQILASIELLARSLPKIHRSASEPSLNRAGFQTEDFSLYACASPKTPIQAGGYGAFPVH

The assay concerns the target T1, Flag/GST-tagged recombinant human B-Raf (Homo sapiens, UniProt P15056).
T1 construct: Flag; GST; made in house; host or cells: Sf9 insect cells (B-Raf); E. coli (MEK1-GST)
Description: B-Raf kinase assay (phosphorylation of GST-MEK1, DELFIA readout). It is filed as biochemical. To be noted: B-Raf 0.2 nM, non-active GST-MEK1 2.8 nM, 45 minutes at RT; compound 1 μM to 3 nM or 0.1 uM to 300 pm in half log dilutions. Here is the method:
Testing For B-Raf Kinase Inhibitors
Compounds of Formula A were tested as B-Raf Kinase inhibitors that can inhibit growth of tumor cells which contain oncogenic forms of Receptor Tyrosine Kinases or K-Ras, or B-Raf kinase.
Reagents: Flag/GST-tagged recombinant human B-Raf produced in Sf9 insect cells, human non-active Mek-1-GST (recombinant protein produced in E. coli); and a phospho-MEK1 specific poly-clonal Ab from Cell Signaling Technology (Cat. #9121).
B-Raf1 Kinase Assay Procedure: B-Raf-1 is used to phosphorylate GST-MEK1. MEK1 phosphorylation is measured by a phospho-specific antibody (from Cell Signaling Technology, Cat. #9121) that detects phosphorylation of two serine residues at positions 217 and 221 on MEK1.
The following Kinase Assay Protocol was employed in accordance with the invention:
B-Raf Assay Stock Solutions:
1. Assay Dilution Buffer (ADB): 20 mM MOPS, pH 7.2, 25 mM B-glycerol phosphate, 5 mM EGTA, 1 mM sodium orthovanadate, 1 mM dithiothreitol, 0.01% Triton X-100. 2. Magnesium/ATP Cocktail: ADB solution (minus Triton X-100) plus 200 μM cold ATP and 40 mM magnesium chloride. 3. Active Kinase: Active B-Raf: used at 0.2 nM per assay point. 4. Non-active GST-MEK1: Use at 2.8 nM final concentration). 5. TBST-Tris (50 mM, pH 7.5), NaCl (150 mM), Tween-20 (0.05%)
7. Anti pMEK Ab (Upstate) 8. Anti-rabbit Ab/Europium conjugate (Wallac)
1. Add 25 μl of ADB containing B-Raf and Mek per assay (i.e. per well of a 96 well plate) 2. Add 25 μl of 0.2 mM ATP and 40 mM magnesium chloride in Magnesuium/ATP Cocktail. 3. Incubate for 45 minutes at RT with occasional shaking. 4. Transfer this mixture to an anti-GST Ab coated 96 well plate (Nunc Immunosorb plates coated o/n with a-GST. Plate freshly washed 3× with TBS-T before use. 5. Incubate o/n at […] in cold room. 6. Wash 3× with TBST, add Anti-Phospho MEK1 (1:1000, dilution depends upon lot) 7. Incubate for 60 minutes at RT in a shaking incubator 8. Wash 3× with TBST, add Anti-rabbit Ab/Europium conjugate (Wallac) (1:500, dilution depends upon lot) 9. Incubate for 60 minutes at RT on a platform shaker. 10. Wash plate 3× with TBS-T 11. Add 100 ul of Wallac Delfia Enhancement Solution and shake for 10 minutes. 12. Read plates in Wallac Victor model Plate Reader. 13. Collect data analyze in Excel for single point and IC50 determinations. Mallon R, et al (2001) Anal. Biochem. 294:48.
IC50 determinations were performed on compounds of Formula A from single point assays with >80% inhibition. Single point assay—% inhibition at 10 mg/mL (% inhibition=1—sample treated with compound of Formula A/untreated control sample). The % inhibition was determined for each compound concentration. IC50 determinations—Typically the B-Raf assay was run at compound concentrations from 1 μM to 3 nM or 0.1 uM to 300 pm in half log dilutions. Data was analyzed in Excel and transferred to Radis.
Take `Oc1cccc(-c2c(-c3ccncc3)nn3c(-c4ccc(Br)nc4)cnnc23)c1` [Example 5, 3-[4-(6-Bromo-pyridin-3-yl)-7-pyridin-4-yl-pyrazolo[5,1-c][1,2,4]triazin-8-yl]-phenol]: the IC50 was 91 nM.
For `Oc1cccc(-c2c(-c3ccncc3)nn3c(C4CCCCC4)cnnc23)c1` [Example 2, 3-(4-cyclohexyl-7-pyridin-4-yl-pyrazolo[5,1-c][1,2,4]triazin-8-yl)phenol], the IC50 is 18 nM.
Next, `CCOC(=O)N1C2CCC1CC(c1cnnc3c(-c4ccc(Cl)c(O)c4)c(-c4ccncc4)nn13)C2` (stereo not shown) [Example 18, Ethyl 3-[8-(4-chloro-3-hydroxyphenyl)-7-pyridin-4-ylpyrazolo[5,1-c][1,2,4]triazin-4-yl]-8-azabicyclo[3.2.1]octane-8-carboxylate]: 0.3 nM.
Turning to `COc1cccc(-c2c(-c3ccncc3)nn3c(C)c(C(=O)N4CCN(C)CC4)nnc23)c1` [Example 3], the IC50 is 1000 nM.
Take `Cc1c(S(=O)(=O)c2ccccc2)nnc2c(-c3cccc(O)c3)c(-c3ccncc3)nn12` [Example 9, 3-[4-Methyl-3-(phenylsulfonyl)-7-pyridin-4-ylpyrazolo[5,1-c][1,2,4]triazin-8-yl]phenol]: the concentration for half-maximal inhibition (IC50) came to 55 nM.
Regarding `CN1CCN(c2ccc(-c3cnnc4c(-c5cccc(O)c5)c(-c5ccncc5)nn34)cn2)CC1` [Example 7, 3-{4-[6-(4-Methyl-piperazin-1-yl)-pyridin-3-yl]-7-pyridin-4-yl-pyrazolo[5,1-c][1,2,4]triazin-8-yl}-phenol], the IC50 turned out to be 2 nM.
In the case of `CN1CCCN(c2ccc(-c3cnnc4c(-c5ccc(Cl)c(O)c5)c(-c5ccncc5)nn34)cn2)CC1` [Example 14, 2-Chloro-5-{4-[6-(4-methyl-1,4-diazepan-1-yl)pyridin-3-yl]-7-pyridin-4-ylpyrazolo[5,1-c][1,2,4]triazin-8-yl}phenol], the 50% inhibitory concentration (IC50) was under 0.3 nM.
For `CN1CCCN(c2ccc(-c3cnnc4c(-c5cccc(O)c5)c(-c5ccncc5)nn34)cn2)CC1` [Example 6, 3-{4-[6-(4-Methyl-[1,4]diazepan-1-yl)-pyridin-3-yl]-7-pyridin-4-yl-pyrazolo[5,1-c][1,2,4]triazin-8yl}-phenol], the IC50 worked out at 2 nM.
For `CN1CCN(S(=O)(=O)c2cccc(-c3cnnc4c(-c5ccc(Cl)c(O)c5)c(-c5ccncc5)nn34)c2)CC1` [Example 15, 2-Chloro-5-(4-{3-[(4-methylpiperazin-1-yl)sulfonyl]phenyl}-7-pyridin-4-ylpyrazolo[5,1-c][1,2,4]triazin-8-yl)phenol], the 50% inhibitory concentration (IC50) was under 0.3 nM.
Regarding `CCOC(=O)c1nnc2c(-c3ccc(Cl)c(OC)c3)c(-c3ccncc3)nn2c1C1CC1` [Example 10, Ethyl 8-(4-chloro-3-methoxyphenyl)-4-cyclopropyl-7-pyridin-4-yl pyrazolo[5,1-c][1,2,4]triazine-3-carboxylate], the IC50 was 329 nM.
